From patent US20230295197A1, “STAT5 and STAT6 Degraders and Uses Thereof” (REGENTS OF THE UNIVERSITY OF MICHICAN, priority 2022, published 2023)
Read-outs that look alike come from different tables or passages of the source.

Molecular target: T1, STAT6 (Homo sapiens, UniProt P42226)
T1 construct: endogenous in cells; host or cells: MOLM-16, KU-812, SKNO1, MB231, L1236
T1 sequence (P42226 1-847): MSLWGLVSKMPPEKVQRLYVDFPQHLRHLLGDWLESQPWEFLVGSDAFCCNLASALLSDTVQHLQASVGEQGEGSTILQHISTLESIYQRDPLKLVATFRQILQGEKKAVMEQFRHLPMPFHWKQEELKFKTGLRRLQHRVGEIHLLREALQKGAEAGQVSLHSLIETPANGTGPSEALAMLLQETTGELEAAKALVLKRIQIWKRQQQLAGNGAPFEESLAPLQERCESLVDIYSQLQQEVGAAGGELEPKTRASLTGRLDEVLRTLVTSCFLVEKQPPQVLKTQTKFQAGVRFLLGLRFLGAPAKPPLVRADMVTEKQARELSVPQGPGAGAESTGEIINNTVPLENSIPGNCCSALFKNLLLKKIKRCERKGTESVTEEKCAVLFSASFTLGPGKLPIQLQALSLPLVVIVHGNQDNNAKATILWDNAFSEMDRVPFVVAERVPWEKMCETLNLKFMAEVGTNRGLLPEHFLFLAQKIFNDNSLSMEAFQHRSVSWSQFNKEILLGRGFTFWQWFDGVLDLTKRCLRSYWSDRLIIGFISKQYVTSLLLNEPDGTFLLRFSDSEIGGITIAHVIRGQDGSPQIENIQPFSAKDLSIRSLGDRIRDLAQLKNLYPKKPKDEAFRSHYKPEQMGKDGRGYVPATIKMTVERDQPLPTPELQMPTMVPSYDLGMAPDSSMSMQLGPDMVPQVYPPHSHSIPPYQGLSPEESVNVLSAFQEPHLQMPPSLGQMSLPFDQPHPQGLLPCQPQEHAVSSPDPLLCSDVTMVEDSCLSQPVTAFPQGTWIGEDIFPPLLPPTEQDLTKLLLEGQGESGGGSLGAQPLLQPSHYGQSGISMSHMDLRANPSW
Assay: Immunoblotting (Western blot) analysis of STAT6 degradation efficiency of degraders in treated cells
Format: cell-based
Protocol: Evaluation of the degradation efficiency of degraders may be accomplished by immunoblotting analysis. The representative general protocol is the following:
Cells are maintained in the appropriate culture medium with 10% FBS at 37° C. and an atmosphere of 5% CO2. Cell lines are used within three months of thawing fresh vials. Cells are lysed 1× Cell Lysis Buffer (Cell Signaling Technology, #9803), resolved by SDS-PAGE NuPAGE gel (Thermo Fisher Scientific), and transferred to a PVDF membrane (Millipore). Membranes are blocked using Odyssey TBS Blocker Buffer (LI-COR). IRDye 680RD and 800CW Dye-labeled secondary antibodies (LI-COR) are used. The washed membranes are scanned using Odyssey CLx imager (LI-COR). The intensity of Western blot signaling is quantitated using the Odyssey software. Primary antibodies used are: STAT5 Rabbit mAb (Cell Signaling Technology, #94205), STAT6 Rabbit mAb (Cell Signaling Technology, #5397) and GAPDH mouse monoclonal antibody (Santa Cruz Biotechnology, sc-47724).
To evaluate the degradation efficiency of degraders, immunoblotting analysis was performed. The general protocol is the following.
About 1 million cells for each data point were treated with compounds at indicated concentrations and durations. Untreated and treated cells in cell culture medium were transferred into tubes, followed by centrifugation at 3,000 rpm and 4° C. for 6 min Supernatants were removed from tubes and radioimmunoprecipitation assay (RIPA) lysis buffer supplemented with 1% protease inhibitor cocktail (Fisher Scientific cat. PI87786) and phosphatase inhibitor (Roche cat. 04906837001) were added to tubes containing the remaining cell pellets. The tubes were then left on ice for 30 min and placed in a −80° C. freezer. Subsequently they were thawed in 37° C. water, then centrifuged at 14,000 rpm for 15 min and the cell lysates transferred to new tubes. The concentration of total proteins in each tube was calculated using the Pierce BCA protein Assay kit (cat. 23225). Based on the calculated protein concentration, cell lysates containing approximately the same amount of proteins were transferred to new tubes, then distilled water and 4× Protein Sample Loading Buffer for Western Blots (LI-COR cat. 928-40004) supplemented with 20% of mercaptoethanol (Sigma Aldrich cat. M6250) were added on ice. The cell lysates were then reduced and denatured at 95° C. for 5 min. From the tubes containing cell lysates an equal amount of protein samples (20-40 μg) was loaded into precast 8%, 10%, 4%-12%, or 4%-20% Tris-glycine gels (Novex) filled with Tris-glycine SDS running buffer. After the proteins were resolved, they were transferred onto Immobile-FL PVDF Membrane (Millipore Sigma cat. IPFL00010), using Mini Trans-Blot Electrophoretic Transfer Cell (Bio-Rad 1703930). The membranes were blocked with Intercept Blocking Buffer (LI-COR cat. 927-70001) in LI-COR Western Blot boxes for 1 h at rt. The membranes were washed with 1× Tris-buffered saline-Tween-20 (TBST, 1× solution was made from 20×TBST solution, ThermoFisher Scientific cat. 28360) for 5 min 4 times. The membranes were incubated overnight at 4° C. in Intercept Blocking Buffer supplemented with primary antibodies (normally antibody:buffer 1:1000) and Tween-20. The membranes were washed with TBST for 5 min 4 times and were incubated with Intercept Blocking Buffer supplemented with IRDye 800CE Secondary Antibodies, IRDye 680RD Secondary Antibodies (LI-COR biosciences), Tween-20, and 10% SDS solution, for 1 h at rt. The membranes were then washed with TBST for 5 min 4 times and rinsed with deionized water before drying and scanning with Odyssey Dlx Amazing System (LI-COR). The immunoblots were finally quantified by the software.

[1] = L1236 cells, read-out: DC50 S6 L1236
[2] = MOLM-16 cells, class symbols, read-out: DC50 S6 MOLM-16
[3] = MB231 cells, read-out: DC50 S6 MB231

SMILES	DC50 [1] [µM]	DC50 [2] [µM]	DC50 [3] [µM]
Cc1ncsc1-c1ccc([C@H](C)NC(=O)[C@@H]2C[C@@H](O)CN2C(=O)[C@@H](NC(=O)CCCCNC(=O)CO[C@H]2C[C@@H](C(=O)N3CCC[C@H](c4ccccc4)C3)N(C(=O)[C@@H](NC(=O)c3cc4cc(C(F)(F)P(=O)(O)O)ccc4s3)C(C)(C)C)C2)C(C)(C)C)cc1 [Compound 437, (difluoro(2-(((S)-1-((2S,4S)-4-(2-((5-(((S)-1-((2S,4R)-4-hydroxy-2-(((S)-1-(4-(4-methylthiazol-5-yl)phenyl)ethyl)carbamoyl)pyrrolidin-1-yl)-3,3-dimethyl-1-oxobutan-2-yl)amino)-5-oxopentyl)amino)-2-oxoethoxy)-2-((R)-3-phenylpiperidine-1-carbonyl)pyrrolidin-1-yl)-3,3-dimethyl-1-oxobutan-2-yl)carbamoyl)benzo[b]thiophen-5-yl)methyl)phosphonic acid]	> 10	> 10	–
CC(C)(C)[C@H](NC(=O)c1cc2cc(C(F)(F)P(=O)(O)O)ccc2s1)C(=O)N1C[C@@H](OCC(=O)NCCCCCCCCC#Cc2ccc3c(c2)C(=O)N(C2CCC(=O)NC2=O)C3=O)C[C@H]1C(=O)N1CCC[C@H](c2ccccc2)C1 (stereo partly drawn) [Compound 504, ((2-(((2S)-1-((2S,4S)-4-(2-((10-(2-(2,6-dioxopiperidin-3-yl)-1,3-dioxoisoindolin-5-yl)dec-9-yn-1-yl)amino)-2-oxoethoxy)-2-((R)-3-phenylpiperidine-1-carbonyl)pyrrolidin-1-yl)-3,3-dimethyl-1-oxobutan-2-yl)carbamoyl)benzo[b]thiophen-5-yl)difluoromethyl)phosphonic acid]	–	> 10	–
CC(C)(C)[C@H](NC(=O)c1cc2cc(C(F)(F)P(=O)(O)O)ccc2s1)C(=O)N1CCN(C(=O)CC(=O)NCCCCCCCCCC#Cc2cccc3c2C(=O)N(C2CCC(=O)NC2=O)C3=O)C[C@H]1C(=O)N1CCC[C@H](c2ccccc2)C1 (stereo partly drawn) [Compound 533, ((2-(((2S)-1-((2S)-4-(3-((11-(2-(2,6-dioxopiperidin-3-yl)-1,3-dioxoisoindolin-4-yl)undec-10-yn-1-yl)amino)-3-oxopropanoyl)-2-((R)-3-phenylpiperidine-1-carbonyl)piperazin-1-yl)-3,3-dimethyl-1-oxobutan-2-yl)carbamoyl)benzo[b]thiophen-5-yl)difluoromethyl)phosphonic acid]	–	> 10	–
Cc1ncsc1-c1ccc([C@H](C)NC(=O)[C@@H]2C[C@@H](O)CN2C(=O)[C@@H](NC(=O)CCCCNC(=O)COc2ccc3c(c2)CN(C(=O)[C@@H](NC(=O)c2cc4cc(C(F)(F)P(=O)(O)O)ccc4s2)C(C)(C)C)[C@H](C(=O)N2CCC[C@H](c4ccccc4)C2)C3)C(C)(C)C)cc1 [Compound 473, (difluoro(2-(((S)-1-((S)-7-(2-((5-(((S)-1-((2S,4R)-4-hydroxy-2-(((S)-1-(4-(4-methylthiazol-5-yl)phenyl)ethyl)carbamoyl)pyrrolidin-1-yl)-3,3-dimethyl-1-oxobutan-2-yl)amino)-5-oxopentyl)amino)-2-oxoethoxy)-3-((R)-3-phenylpiperidine-1-carbonyl)-3,4-dihydroisoquinolin-2(1H)-yl)-3,3-dimethyl-1-oxobutan-2-yl)carbamoyl)benzo[b]thiophen-5-yl)methyl)phosphonic acid]	–	> 10	–
CC(C)(C)[C@H](NC(=O)c1cc2cc(C(F)(F)P(=O)(O)O)ccc2s1)C(=O)N1CCN(C(=O)CC(=O)NCCCCCC#Cc2cccc3c2C(=O)N(C2CCC(=O)NC2=O)C3=O)C[C@H]1C(=O)N1CCC[C@H](c2ccccc2)C1 (stereo partly drawn) [Compound 529, ((2-(((2S)-1-((2S)-4-(3-((7-(2-(2,6-dioxopiperidin-3-yl)-1,3-dioxoisoindolin-4-yl)hept-6-yn-1-yl)amino)-3-oxopropanoyl)-2-((R)-3-phenylpiperidine-1-carbonyl)piperazin-1-yl)-3,3-dimethyl-1-oxobutan-2-yl)carbamoyl)benzo[b]thiophen-5-yl)difluoromethyl)phosphonic acid]	–	> 10	–
Cc1ncsc1-c1ccc(CNC(=O)[C@@H]2C[C@@H](O)CN2C(=O)[C@@H](NC(=O)CCCCCNC(=O)CO[C@@H]2C[C@@H](C(=O)N(C)c3ccc(Br)cc3)N(C(=O)[C@@H](NC(=O)c3cc4cc(C(F)(F)P(=O)(O)O)ccc4s3)C(C)(C)C)C2)C(C)(C)C)cc1 [Compound 417, ((2-(((S)-1-((2S,4R)-2-((4-bromophenyl)(methyl)carbamoyl)-4-(2-((6-(((S)-1-((2S,4R)-4-hydroxy-2-((4-(4-methylthiazol-5-yl)benzyl)carbamoyl)pyrrolidin-1-yl)-3,3-dimethyl-1-oxobutan-2-yl)amino)-6-oxohexyl)amino)-2-oxoethoxy)pyrrolidin-1-yl)-3,3-dimethyl-1-oxobutan-2-yl)carbamoyl)benzo[b]thiophen-5-yl)difluoromethyl)phosphonic acid]	> 10	–	> 10
Cc1ncsc1-c1ccc(CNC(=O)[C@@H]2C[C@@H](O)CN2C(=O)[C@@H](NC(=O)CCCCCCNC(=O)CO[C@@H]2C[C@@H](C(=O)N(C)c3ccc(Br)cc3)N(C(=O)[C@@H](NC(=O)c3cc4cc(C(F)(F)P(=O)(O)O)ccc4s3)C(C)(C)C)C2)C(C)(C)C)cc1 [Compound 418, ((2-(((S)-1-((2S,4R)-2-((4-bromophenyl)(methyl)carbamoyl)-4-(2-((7-(((S)-1-((2S,4R)-4-hydroxy-2-((4-(4-methylthiazol-5-yl)benzyl)carbamoyl)pyrrolidin-1-yl)-3,3-dimethyl-1-oxobutan-2-yl)amino)-7-oxoheptyl)amino)-2-oxoethoxy)pyrrolidin-1-yl)-3,3-dimethyl-1-oxobutan-2-yl)carbamoyl)benzo[b]thiophen-5-yl)difluoromethyl)phosphonic acid]	> 10	–	> 10
CC(C)(C)[C@H](NC(=O)c1cc2cc(C(F)(F)P(=O)(O)O)ccc2s1)C(=O)N1CCN(C(=O)CC(=O)NCCCCCCCCCC#Cc2cccc3c2C(=O)N(C2CCC(=O)NC2=O)C3=O)C[C@H]1C(=O)N1CCO[C@H](c2ccccc2)C1 (stereo partly drawn) [Compound 519, ((2-(((2S)-1-((2S)-4-(3-((11-(2-(2,6-dioxopiperidin-3-yl)-1,3-dioxoisoindolin-4-yl)undec-10-yn-1-yl)amino)-3-oxopropanoyl)-2-((R)-2-phenylmorpholine-4-carbonyl)piperazin-1-yl)-3,3-dimethyl-1-oxobutan-2-yl)carbamoyl)benzo[b]thiophen-5-yl)difluoromethyl)phosphonic acid]	–	> 10	–
